Like-named read-outs stand apart in the source and are kept apart here.
Experiments:
[1] = molecular target: T1, F. hepatica taurine transporter (FhTauT) (Fasciola hepatica, UniProt A0A2R4LGM2); assay: cell-based
T1 sequence (A0A2R4LGM2 1-647): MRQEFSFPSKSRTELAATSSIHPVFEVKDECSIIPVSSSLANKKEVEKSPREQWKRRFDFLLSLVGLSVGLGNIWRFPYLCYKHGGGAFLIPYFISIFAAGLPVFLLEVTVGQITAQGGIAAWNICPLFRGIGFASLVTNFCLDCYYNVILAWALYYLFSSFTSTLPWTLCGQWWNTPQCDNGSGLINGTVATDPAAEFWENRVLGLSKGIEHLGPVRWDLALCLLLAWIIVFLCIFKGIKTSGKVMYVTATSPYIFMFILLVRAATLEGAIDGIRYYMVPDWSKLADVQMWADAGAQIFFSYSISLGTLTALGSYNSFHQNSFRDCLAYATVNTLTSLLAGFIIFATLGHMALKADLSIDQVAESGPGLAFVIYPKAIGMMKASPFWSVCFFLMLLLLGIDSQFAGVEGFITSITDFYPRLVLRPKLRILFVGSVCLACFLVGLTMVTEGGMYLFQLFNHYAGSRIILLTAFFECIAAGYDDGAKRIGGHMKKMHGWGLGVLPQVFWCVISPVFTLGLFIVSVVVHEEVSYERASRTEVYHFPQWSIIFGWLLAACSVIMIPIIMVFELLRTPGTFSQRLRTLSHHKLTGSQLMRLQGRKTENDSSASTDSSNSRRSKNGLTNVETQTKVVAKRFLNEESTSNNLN
Procedure: (§1) Human embryonic kidney-293 (HEK293 (ATCC CRL-1573, LGC standards Wesel, Germany)) cells, were grown in Dulbecco`s modified Eagle medium (DMEM) supplemented with 10% fetal bovine serum (FCS Nuaille, France), 100 units/ml penicillin and 100 μg/ml streptomycin at 37°C and with 5% CO2 in a humidified incubator. Cells were transfected with plasmids encoding fluorescently tagged or untagged versions of F. hepatica (FhTauT) and H. sapiens (HsTauT) taurine transporter using Jet Prime transfection reagent (Polyplus-transfection, France). To generate monoclonal cell lines stably expressing the transporters, transfected cells were subjected to and selected with the concentration of 0.2 mg/ml geneticin (G418) for 10 days. Surviving cells forming colonies were separated and analyzed for membrane localization of transporters and transport of taurine. After the selection process cells were kept at 50 μg/ml G418 to keep the selection pressure.
(§2) For saturation uptake experiments, cells were plated the day before the experiment at a density of about 50,000 cells/well onto poly (D-lysine)-coated 48-well culture plates (CytoOne, USA). On the day of the experiment, cells were washed with prewarmed Krebs-HEPES buffer twice (KHB) (120 mM NaCl, 3 mM KCl, 2 mM CaCl2, 2 mM MgCl2, 20 mM glucose, 10 mM HEPES, pH 7.3). Then, cells were incubated in KHB containing tracer amounts (0.1 μM) of [^3H]taurine, (19.1 Ci/mmol) (Perkin Elmer, USA) together with increasing concentrations of non-labeled taurine 10 min. The reaction was terminated after 10 minutes by removing the medium followed by rapid rinsing of cells with ice-cold assay buffer. Subsequently, cells were lysed with 0.5 ml of 1% sodium dodecyl sulfate (SDS) and transferred into scintillation vials for liquid scintillation counting. Non-specific uptake was determined by incubating cells in the presence of the blocker β-alanine (100 mM) before and during the experiment and subtracted from uptake values. Data were fit to a Michaelis-Menten equation.
(§3) Chloride-free KHB was prepared to examine the chloride dependence of both, FhTauT and HsTauT using acetate salts instead of chloride salts. Likewise, NaCl was replaced by choline chloride to examine the sodium requirement. Uptake experiments were performed as described above using 0.1 μM [^3H]taurine in sodium- and chloride-free modified KHB, respectively, mixed with increasing amounts of NaCl containing KHB thereby varying Na^+ and respectively Cl^- concentration from 0–120 mM. The inhibition experiments were performed in analogous manner with 0.1 μM [^3H]taurine and the logarithmically spaced concentrations of inhibitors.

[2] = molecular target: T2, human taurine transporter (HsTauT) (Homo sapiens, UniProt P31641); assay: [3H]GABA uptake by HEK293 cells expressing the human taurine transporter; format: cell-based; parameters: expressed in transfected cells; details: 0.3 μM to 3 mM [3H]GABA, three minutes
T2 sequence (P31641 1-620): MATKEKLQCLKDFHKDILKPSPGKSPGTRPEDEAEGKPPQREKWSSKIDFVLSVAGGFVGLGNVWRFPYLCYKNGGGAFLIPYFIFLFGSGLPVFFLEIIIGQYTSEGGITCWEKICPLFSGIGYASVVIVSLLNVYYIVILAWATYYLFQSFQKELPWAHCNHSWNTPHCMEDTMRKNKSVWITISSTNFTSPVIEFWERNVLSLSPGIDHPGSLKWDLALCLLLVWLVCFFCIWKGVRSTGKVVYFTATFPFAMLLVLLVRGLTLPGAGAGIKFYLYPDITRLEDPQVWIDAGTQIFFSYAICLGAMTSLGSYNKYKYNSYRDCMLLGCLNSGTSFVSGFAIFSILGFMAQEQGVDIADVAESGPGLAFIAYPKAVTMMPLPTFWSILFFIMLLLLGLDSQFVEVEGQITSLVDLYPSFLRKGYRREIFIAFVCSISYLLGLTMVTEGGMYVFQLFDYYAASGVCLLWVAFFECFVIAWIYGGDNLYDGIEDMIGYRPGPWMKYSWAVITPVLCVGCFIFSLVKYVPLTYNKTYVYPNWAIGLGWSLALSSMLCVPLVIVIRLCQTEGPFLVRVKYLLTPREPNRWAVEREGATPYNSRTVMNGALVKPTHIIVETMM
Procedure: (§4) GABA uptake was assessed by incubating HEK293 cells (10^5/ well) stably expressing the human GABA-transporter-1 (HsGAT1, diamonds), the F. hepatica taurine transporter (FhTauT, circles) and the human taurine transporter (HsTauT, triangles) in KHB containing concentrations of [^3H]GABA covering the range of 0.3 μM to 3 mM for three minutes. The amount of labeled [^3H]GABA was kept constant and the specific activity was progressively diluted by the addition of unlabeled GABA (from 9 Ci/mmol to 9 Ci/mol). The reaction was stopped by the addition of ice-cold KHB followed by three rapid washes. Cells were detached and the accumulated radioactivity was determined by liquid scintillation counting.
(§5) Supplementary file pntd.0006428.s004.tif: S4 Fig [^3H]GABA uptake by the human GABA-transporter-1, the F. hepatica taurine transporter and the human taurine transporter. HEK293 cells (10^5/ well) stably expressing the human GABA-transporter-1 (HsGAT1, diamonds), the F. hepatica taurine transporter (FhTauT, circles) and the human taurine transporter (HsTauT, triangles) were incubated in the presence of the indicated concentrations of [^3H]GABA. The specific activity was progressively diluted by addition of unlabeled GABA (from 9 Ci/mmol to 9 Ci/mol). After three minutes the reaction was stopped and the accumulated radioactivity was determined by liquid scintillation counting. […]

[3] = test system: taurine transporter (Slc6a6/TauT); details: read-out: reported KM for GABA; cited from earlier work
[4] = molecular target: T2, human taurine transporter (HsTauT); assay: [3H]taurine uptake by HEK293 cells stably expressing the human taurine transporter; details: 0.1 μM [3H]taurine, 10 min
Procedure: as §1, §2, §3

[5] = molecular target: T1, F. hepatica taurine transporter (FhTauT); assay: [3H]GABA uptake by HEK293 cells expressing the F. hepatica taurine transporter; format: cell-based; details: 0.3 μM to 3 mM [3H]GABA, three minutes
Procedure: as §4, §5

taurine transporter = test system: taurine transporter; parameters: method as in PMID 1435737; details: 100 μM β-alanine; cited from earlier work

SMILES	less potent in inhibiting the F. hepatica than the human transporter [1]	affinity lower than that of taurine ([1]; alternative substrates vs taurine) [fold]	IC50 ([1]; read-out: IC50 for inhibition of [3H]taurine uptake, 0.1 μM [3H]taurine, 10 min) [µM]	uptake of [3H]GABA [2]	Km [3] [µM]	IC50 ([4]; read-out: IC50 for inhibition of [3H]taurine uptake) [µM]	uptake of [3H]GABA [5]	uptake of [3H]GABA ([5]; listed as [^3H]GABA)	IC50 [1] [µM]	affinity lower than that of taurine [1]	less potent in inhibiting the F. hepatica than the human transporter ([1]; human, hek293 cells) [fold]	inhibition of uptake (taurine transporter)	IC50 ([4]; IC50 for inhibition of [3H]taurine uptake) [µM]
NCCCC(=O)O [GABA]	about 3 fold	~350	5600 ± 900	failed to detect any uptake	1460	1600 ± 500	not of GABA	failed to detect any uptake					
NCCC(=O)O [β-alanine]									713 ± 260	about 50 fold	~5	about 50%	132 ± 54
